Source: article PMC12624434 (ACS Pharmacology & Translational Science, 2025)
“And” between values parts separate entries of the source, which are not always exact repeats. Equal values may be shown once. “Also recorded” adds a separate entry of the source. Read-outs that look alike come from different tables or passages of the source. Marks after values point to notes of the source that are not given here.

Legend:
[1] = tested on: vascular permeability of perfused mouse retina blood vessels; assay: Ex vivo retina permeability assay (sulforhodamine B extravasation); assay type: cell-based
Excerpt: C57Bl/6J mice were culled through CO2 overdose before proceeding with the cannulation of the common carotid arteries and perfusion of the vasculature, as previously described. Each eye was subsequently removed and enucleated. The retina was isolated with the attached sclera, flattened onto a silicone base (SYLGARD 184, Merck), and held in position by a metal ring and pins. Retinal explants were visualized with an Olympus 10× objective on an upright Axiophot fluorescence microscope (Zeiss) and continuously superfused with Krebs solution (124 mM NaCl, 5 mM KCl, 2 mM MgSO4, 22 mM […], 0.125 mM NaH2PO4 and 2 mM CaCl2, pH 7.4) supplemented with 5 mM glucose and 0.1% BSA w/v. A radial vein was injected with 1 mg/mL sulforhodamine B (479 Da; Merck) in Krebs solution using a glass needle to visualize the vasculature under a TRITC filter with an Olympus 40× water immersion objective. For permeability measurements, the fluorescence of a selected microvessel was recorded continuously by time-lapse imaging with a CCD camera (Hamamatsu) and HCImageLive software (Hamamatsu) for at least 30 s to obtain a baseline. VEGFA164 or EG00229 in Krebs solution were then added dropwise onto the retina. […] Time-lapse series were analyzed using ImageJ (NIH Bethesda). […] Permeability measurements from at least three different ex vivo retinal preparations were combined and expressed as mean ± SD. […]

NRP1 b1 domain = target: T1, NRP1 b1 domain (Homo sapiens, UniProt O14786); assay: SPR binding to immobilized NRP1 b1 domain (Biacore 4000, CM5 chip); details: Figure 2B; read-out: KD (kinetics)
T1 construct: with the purified recombinant NRP1 b1 domain immobilized on the chip; inferred from Ni-NTA capture), TEV-cleavable (cleaved yes); made in house; host or cells: E. coli Rosetta (DE3)
T1 sequence (O14786 275-424 limits assumed): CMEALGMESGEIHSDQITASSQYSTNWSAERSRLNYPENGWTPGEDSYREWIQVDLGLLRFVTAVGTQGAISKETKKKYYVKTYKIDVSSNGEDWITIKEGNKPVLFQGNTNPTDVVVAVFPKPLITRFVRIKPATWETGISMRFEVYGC

[2] = tested on: total Na+ currents in rat DRG neurons; assay: Whole-cell patch-clamp of Na+ currents in dissociated DRG neurons; assay type: cell-based; details: for V 1/2 activation, total Na+ / V 1/2 inactivation, total Na+: mean ± SEM (n cells)
Description: Recordings were obtained from acutely dissociated DRG neurons obtained from female rats as described earlier. Patch-clamp recordings were performed at room temperature (22–24 °C). Currents were recorded using an EPC 10 Amplifier-HEKA (HEKA Elektronik, Ludwigshafen, Germany) linked to a computer with Patchmaster software.
To determine the effect of VEGFA application on voltage-gated sodium currents, we incubated DRG neurons for 30 min with recombinant rat VEGFA, 1 nM (Cat#P4853, Abnova, Taipei, Taiwan) before whole-cell patch-clamp recordings. […] For the control condition, DRG neurons were incubated for 30 min with DMSO at a final concentration of 0.1%.
For Na^+ current (I Na+) recordings, the external solution contained (in mM): 130 NaCl, 3 KCl, 30 tetraethylammonium chloride, 1 CaCl2, 0.5 CdCl2, 1 MgCl2, 10 D-glucose and 10 HEPES (pH 7.3 adjusted with NaOH, and mOsm/L = 315). Patch pipettes were filled with an internal solution containing (in mM): 140 CsF, 1.1Cs-EGTA, 10 NaCl, and 15 HEPES (pH 7.3 adjusted with CsOH, and mOsm/L = 300). Peak Na^+ current was acquired by applying 150 ms voltage steps from – 70 to +60 mV in 5-mV increments from a holding potential of – 60 mV to obtain the current–voltage (I–V) relation.
Normalization of currents to each cell’s capacitance (pF) was performed to allow for collection of current density data. For I–V curves, functions were fitted to data using a nonlinear least-squares analysis. I–V curves were fitted using double Boltzmann functions: f=a+g1/(1+exp((x−V1/21)/k1))+g2/(1+exp(−(x−V1/22)/k2)) where x is the membrane potential, V 1/2 is the midpoint potential and k is the corresponding slope factor for single Boltzmann functions. Double Boltzmann fits were used to describe the shape of the curve, not to imply the existence of separate channel populations. Numbers 1 and 2 simply indicate first and second midpoints; a along with g are fitting parameters.
Activation curves were obtained from the I–V curves by dividing the peak current at each depolarizing step by the driving force according to the equation: G = I/(V mem – E rev), where I is the peak current, V mem is the membrane potential and E rev is the reversal potential. The conductance (G) was normalized against the maximum conductance (G max). Steady-state inactivation (SSI) curves were obtained by applying an H-infinity protocol that consisted of 1-s conditioning prepulses from −120 to +10 mV in 10-mV increments followed by a 200 ms test pulse to +10 mV. Inactivation curves were obtained by dividing the peak current recorded at the test pulse by the maximum current (I max). Activation and SSI curves were fitted with the Boltzmann equation.

[3] = tested on: VEGFA-induced mechanical allodynia in rats; assay: VEGFA-induced mechanical allodynia (von Frey), intraplantar injection; assay type: in vivo, rat; details: 30 μM coinjected with VEGFA165 10 nM, 50 μL intraplantar; male and female rats
Description: (§1) The procedure was performed as reported previously. Briefly, rats were gently restrained in a fabric cloth and given an intraplantar injection in the hind-paw containing VEGFA165 (10 nM) and compound (EG00229 or 12h, at 30 or 10 μM) alone or in combination in 50 μL of PBS vehicle (NaCl 137 mM, KCl 2.5 mM, Na2HPO4 10 mM, and KH2PO4 1.8 mM), using a 31G needle.

[4] = tested on: VEGFA-induced aversion to mechanical stimuli in rats; assay: Conditioned place aversion (CPA) to 10 g vF stimulation after VEGFA; assay type: in vivo, rat
Description: as §1
The experiments were conducted in a two-chamber device based on the protocols from and as previously described. The protocol includes 4 × 10 min of sequential tests of preconditioning (10 min), conditioning (2 × 10 min) and testing (10 min). During preconditioning, the animal is allowed free access to two connected chambers (30 × 30 × 19 cm), each associated with a scented lip-balm applied to the walls. Immediately following preconditioning, a divider was applied between the chambers, and the rats were conditioned to either stimuli or no-stimuli for 10 min in each chamber. The stimuli consisted of repeated stimulation with a 10 g VF-filament every 30 s for the 10 min that the subject was contained in that chamber, while no stimuli (NS) was applied in the other chamber. The order and side of conditioning was alternated between subjects. Following the conditioning, the divider was removed, and the rat was allowed free access to both chambers for the 10 min test. Animal movements in each chamber were recorded by a camera above, and the duration of time spent in each chamber was recorded during preconditioning and test phase. Decreased time spent in a chamber during the test versus preconditioning indicated avoidance for that chamber and was calculated as a CPA-score: time in VF-chamber during preconditioning – time in VF-chamber during test.

NRP1-a1,b1 = target: T2, NRP1-a1,b1 (Homo sapiens, UniProt O14786); assay: bt-VEGFA cell-free competition binding assay (plate-based)
T2 sequence (O14786 273-427 limits assumed): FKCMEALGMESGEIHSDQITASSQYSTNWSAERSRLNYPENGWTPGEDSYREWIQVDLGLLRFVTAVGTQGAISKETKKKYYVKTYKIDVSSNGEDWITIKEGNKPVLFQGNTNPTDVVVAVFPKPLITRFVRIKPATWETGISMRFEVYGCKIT
Description: The assay was conducted as previously described. Briefly, the 96-well plates were precoated with NRP1 protein at 3 μg/mL overnight at 4 °C. On the following day, the plates were treated with blocking buffer (PBS containing 1%1% BSA) and washed three times with wash buffer (PBS containing 0.1% Tween-20). The various concentrations of compounds diluted in PBS containing 1%1% DMSO were added, followed by addition of 0.25 nM of bt-VEGFA165. After 2 h of incubation at room temperature, the plates were washed three times with wash buffer. The bound bt-VEGFA165 to NRP1 was detected by streptavidin– horseradish peroxidase conjugates and the enzyme substrate, and measured using a Tecan Genius plate reader at 450 nm with a reference wavelength at 595 nm. Nonspecific binding was determined in the absence of NRP1-coated wells of the plates.

effect on vascular permeability, alone ([1]; compound alone, ex vivo mouse retina): had no effect on vascular permeability
Kd (NRP1 b1 domain): 346 nM
IC50 (NRP1-a1,b1; 0.25 nM bt-VEGFA165, mean ± SEM, at least three independent experiments, read-out: Competition analysis bt-VEGFA, cell-free NRP1-a1,b1 IC50): 320 ± 40 nM
IC50 (NRP1-a1,b1; plate-based assay, Figure 2D, read-out: IC50, competitive inhibition of bt-VEGFA binding to NRP1): 362 nM and < 500 nM
SMILES: N=C(N)NCCC[C@H](NC(=O)c1sccc1NS(=O)(=O)c1cc(NCc2csc(N3CCNCC3)n2)cc2cccnc12)C(=O)O.O=CO [Compound 12h, (2S)-5-Guanidino-2-[[3-[[6-[(2-piperazin-1-ylthiazol-4-yl)-methylamino]-8-quinolyl]-sulfonylamino]-thiophene-2-carbonyl]-amino]-pentanoic Acid, Formic Acid]
effect on VEGFA-induced dye extravasation ([1]; 30 μM, 15 min preincubation of retinal explants): significantly reduced VEGFA-induced dye extravasation
effect on Na+ currents, alone ([2]; 30 μM alone, 30 min): Neither EG00229 nor 12h alone had any obvious effect
effect on VEGFA-induced increase in Na+ currents and current density ([2]; 30 μM, then VEGFA165 1 nM 30 min, small-sized DRG neurons): equally reduced; also recorded: prevented the VEGFA-mediated increase in total sodium currents
V 1/2 activation, total Na+ ([2]; compound 30 μM + VEGFA): –16.420 ± 0.916 (10) ^b mV
V 1/2 inactivation, total Na+ ([2]; compound 30 μM + VEGFA): –47.632 ± 1.411 (10) mV
V 1/2 activation, total Na+ ([2]; compound alone, 30 μM): –16.819 ± 0.840 (10) ^b mV
V 1/2 inactivation, total Na+ ([2]; compound alone, 30 μM): –52.032 ± 2.123 (10) mV
effect on VEGFA-induced mechanical allodynia (paw withdrawal threshold, AUC 0-6 h) [3]: comparable antinociceptive effects in males and females
VEGFA-induced stimulus-aversion (time in vF-conditioned chamber), Figure S5 ([4]; 10 μM coinjected with VEGFA 10 nM): blocked by 10 μM 12h in males
effect on VEGFA-induced aversion in CPA-paradigm ([4]; 10 μM, male rats): showed significant reduction in VEGFA-induced aversion
VEGFA-induced aversion (time in vF-conditioned chamber) ([4]; 30 μM coinjected with VEGFA 10 nM, male and female rats): prevented significant stimulus-aversion from VEGFA in both sexes; also recorded: the aversion was prevented
CPA-score vs VEGFA/vehicle ([4]; 30 μM, female rats): did not show a statistically significant improvement
